{
  "source": "patent US12011475B2",
  "about": "“Polypeptide, polypeptide fragment, derivative thereof, and applications thereof” (CHENGDU HUITAI BIOMEDICINE CO., LTD., priority 2017, dated 2024)",
  "type_in_all_cases": "in vivo",
  "key": {"[1]": {"test_system": "rat with pulmonary fibrosis induced by bleomycin", "assay": "Lung coefficient, intratracheal instillation (Example 17)", "conditions": "lung mass (mg)/body weight (g), 8 mg/kg peptide + 4 mg/kg bleomycin, Mean ± SEM", "protocol": "The rats in Example 2 were weighed and sacrificed by anesthesia overdose. Lung tissue of both sides of the rats was taken, and the connective tissue around the lung tissue was carefully removed. After washing with saline and dried with a filter paper, the wet weight of the whole lung was weighted by an electronic balance. After the wet weight of the whole lung was weighted by the electronic balance, the lung coefficient was calculated according to the formula, lung coefficient=lung mass (mg)/body weight (g) (the result is shown in FIG. 1).\n(§1) The rats in model group were intratracheally instilled with bleomycin (4 mg/kg); after anesthesia, the rats in treatment groups were intratracheally instilled with bleomycin (4 mg/kg) and corresponding therapeutic drug (8 mg/kg) simultaneously. The remaining implementation steps were the same as the description of Example 9.\nThe experimental rats of the control group, the model group and the treatment groups of Example 15 were taken to determine the lung coefficient. The implementation steps were the same as the description of Example 2."}, "[2]": {"test_system": "rat with pulmonary fibrosis induced by bleomycin", "assay": "HE staining score, intratracheal instillation (Example 18)", "conditions": "inflammatory pathology score, grade 0 to 3, 8 mg/kg peptide + 4 mg/kg bleomycin, Mean ± SEM", "excerpt": "(§2) The lung tissue of the rats of Example 2 was taken, fixed with 4% paraformaldehyde and embedded in paraffin. The wax block embedded the lung tissue was sectioned along the largest cross section. Pathological changes in lung tissue were observed using hematoxylin-eosin (HE) staining. Pathological changes in lung tissue were observed under a light microscope (low magnification) at a magnification of 100 times (the result is shown in FIG. 2).\nAccording to the method provided by Szapie, et al., the degree of alveolitis was graded according to the range of lesions and could be divided into 0 to 3 grades, corresponding to 0 to 3 points. The evaluation indexes for the degree of alveolitis are as follows: grade 0, no alveolitis; grade 1, mild alveolitis, manifested as a slight increase in alveolar septum, infiltration of monocytes, near the pleura or localized, with a lesion range of less than 20% without alveolar structural damage; grade 2, moderate alveolitis, the lesion ranges from 20% to 50%, relatively severe near the pleura; grade 3, severe alveolitis, diffusely distributed, the lesion range is more than 50%, with pulmonary parenchymal lesion occasionally. […]"}, "[3]": {"test_system": "rat with pulmonary fibrosis induced by bleomycin", "assay": "Masson staining score, intratracheal instillation (Example 19)", "conditions": "fibrosis pathology score, grade 0 to 8, 8 mg/kg peptide + 4 mg/kg bleomycin, Mean ± SEM", "excerpt": "as §2, with “9” for “2”, “staining by Masson's trichrome stain (Masson).” for “hematoxylin-eosin (HE) staining.”, “15).” for “2).”\nAccording to the Modified Ashcroft scale scoring method, the degree of pulmonary fibrosis was evaluated according to the range of lesions and could be divided into 0 to 8 grades.\nas §1\nThe lung tissue of the control group, the model group and the treatment groups of Example 15 was taken and subjected to Masson staining and scoring. The specific implementation steps were the same as the description of Example 13."}, "[4]": {"test_system": "rat with pulmonary fibrosis induced by bleomycin", "assay": "Rat body weight, intravenous injection (Examples 20-21)", "conditions": "Day 14/Day 0; intravenous injection 10 mg/kg once a day, 4th to 13th day after bleomycin 4 mg/kg; Mean ± SEM", "excerpt": "The model and the administration route were referred to Example 15. The experimental rats in the control group, the model group, and the treatment groups described in Example 15 were weighted every day from the 1st day until the 14th day. When weighing, the “unstable weighing” of the electronic balance was selected, and an appropriate number of weighing and a degree of tolerable instability during the reading phase were set according to the instructions to weigh and record the readings. The result is shown in the weight ratios in FIG. 2 (Day 14/Day 0).\n(§3) The rats were weighed before administration, intramuscularly injected with 65 mg/kg Zoletil anesthetic solution. After the rats entered the stage III anesthesia, the experimental rats were fixated in the lateral decubitus. Gavage needle size 12 was inserted into rat trachea through oral cavity along the glottis to instill sterile saline or bleomycin (4 mg/kg) (Day 0). After the anesthesia, the rats in control group were intratracheally instilled with an equal volume of sterile saline, and the rats in model group and treatment groups were intratracheally instilled with bleomycin (4 mg/kg). On the 4th day, the sterile saline or peptide drug was injected through the tail vein once a day until the 13th day. The rats were sacrificed on the 14th day for subsequent experiments. […]"}, "active TGF-β": {"test_system": "active TGF-β", "assay": "Active TGF-β content in rat lung tissue by ELISA (Example 27)", "conditions": "active TGF-β/total TGF-β; intravenous injection 10 mg/kg once a day, 4th to 13th day after bleomycin 4 mg/kg; Mean ± SEM", "protocol": "The rat lung tissue in the model group, the control group and the N4 treatment group of Example 9 was taken, and homogenized using RIPA lysate (100 mg of lung tissue corresponding to 1 mL of lysate), centrifuged and the supernatant was taken, and then the protein concentration was determined by BCA method. Equal amounts of protein samples were taken and the active TGF-β content was measured by enzyme-linked immunosorbent assay ELISA (Promega, Cat. No. G7591) (the result is shown in FIG. 10), and one-way ANOVA was used for biostatistical analysis.\nas §3, with “mg/kg).” for “mg/kg). On the 4th day, the sterile saline or peptide drug was injected through the tail vein once a day until the 13th day. The rats were sacrificed on the 14th day for subsequent experiments.”\nThe rat lung tissue in the model group, the control group and the treatment groups of Example 20 was taken, and the active TGF-β content was measured by ELISA. […]"}},
  "note": "Ends that are not written are not given here.",
  "data": [
    {"sequence": "YRVRFLAKENVTQDAEDN [N1]", "values": [
      {"measurement": "Lung Coefficient", "setting": "[1]", "value": "8.49 ± 0.09"},
      {"measurement": "HE Score", "setting": "[2]", "value": "2.45 ± 0.09"},
      {"measurement": "Masson Score", "setting": "[3]", "value": "3.93 ± 0.09"},
      {"measurement": "Weight Ratio", "setting": "[4]", "value": "1.05 ± 0.02"},
      {"measurement": "TGF-β (active TGF-β content in lung tissue)", "setting": "active TGF-β", "value": "13.15 ± 0.48"}
    ]}
  ]
}
